Reference: patent US20160376237A1, “NOVEL PYRIDINE DERIVATIVES” (Hoffmann-La Roche Inc., priority 2014, published 2016)

Target: T1, human CB2 receptors (Homo sapiens, UniProt P34972)
T1 construct: expressed in transfected cells; host or cells: CHO cells
Assay: cAMP assay
Assay type: cell-based
Conditions: not given
Description: CHO cells expressing human CB1 or CB2 receptors are seeded 17-24 hours prior to the experiment 50.000 cells per well in a black 96 well plate with flat clear bottom (Corning Costar #3904) in DMEM (Invitrogen No. 31331), 1×HT supplement, with 10% fetal calf serum and incubated at 5% CO2 and 37° C. in a humidified incubator. The growth medium was exchanged with Krebs Ringer Bicarbonate buffer with 1 mM IBMX and incubated at 30° C. for 30 min. Compounds were added to a final assay volume of 100 μl and incubated for 30 min at 30° C. Using the cAMP-Nano-TRF detection kit the assay (Roche Diagnostics) was stopped by the addition of 50 μl lysis reagent (Tris, NaCl, 1.5% Triton X100, 2.5% NP40, 10% NaN3) and 50 μl detection solutions ([…] mAb Alexa700-cAMP 1:[…] Ruthenium-2-AHA-cAMP) and shaken for 2 h at room temperature. The time-resolved energy transfer is measured by a TRF reader (Evotec Technologies GmbH), equipped with a ND:YAG laser as excitation source. The plate is measured twice with the excitation at 355 nm and at the emission with a delay of 100 ns and a gate of 100 ns, total exposure time 10 s at 730 (bandwidth 30 nm) or 645 nm (bandwidth 75 nm), respectively. The FRET signal is calculated as follows: FRET=T730-Alexa730-P(T645-B645) with P=Ru730-B730/Ru645-B645, where T730 is the test well measured at 730 nM, T645 is the test well measured at 645 nm, B730 and B645 are the buffer controls at 730 nm and 645 nm, respectively. cAMP content is determined from the function of a standard curve spanning from […] to 0.13 nM cAMP.
EC50 values were determined using Activity Base analysis (ID Business Solution, Limited).

T1 sequence (P34972 whole entry): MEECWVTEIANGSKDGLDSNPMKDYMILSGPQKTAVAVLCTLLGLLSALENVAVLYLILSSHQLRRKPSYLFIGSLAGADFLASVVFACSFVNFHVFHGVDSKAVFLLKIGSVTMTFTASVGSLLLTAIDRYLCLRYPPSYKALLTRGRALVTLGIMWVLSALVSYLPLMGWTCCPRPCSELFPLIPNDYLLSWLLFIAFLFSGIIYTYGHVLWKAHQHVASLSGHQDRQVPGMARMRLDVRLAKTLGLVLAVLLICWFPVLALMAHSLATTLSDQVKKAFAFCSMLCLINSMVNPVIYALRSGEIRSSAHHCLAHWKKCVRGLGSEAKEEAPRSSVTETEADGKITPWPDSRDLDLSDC

Row | Structure (SMILES) | EC50 [nM]
1 | CC(C)C[C@H](NC(=O)c1ccc(N2CC3(COC3)C2)c(OCC2CC2)n1)C(N)=O [Example 12, N-[(2S)-1-amino-4-methyl-1-oxopentan-2-yl]-6-(cyclopropylmethoxy)-5-(2-oxa-6-azaspiro[3.3]heptan-6-yl)pyridine-2-carboxamide] | 177
2 | NC(=O)[C@@H]1CC(F)(F)CN1C(=O)c1ccc(N2CCC(O)(C(F)(F)F)C2)c(OCC2CC2)n1 (stereo partly drawn) [Example 28, (2S)-1-[6-(Cyclopropylmethoxy)-5-[3-hydroxy-3-(trifluoromethyl)pyrrolidin-1-yl]pyridine-2-carbonyl]-4,4-difluoropyrrolidine-2-carboxamide] | 1680
3 | CC(C)(NC(=O)c1ccc(OCC2CC2)c(-c2cccc(Cl)c2)n1)c1nccs1 [Example 13, 6-(3-Chlorophenyl)-5-(cyclopropylmethoxy)-N-[2-(1,3-thiazol-2-yl)propan-2-yl]pyridine-2-carboxamide] | 23.1
4 | Cc1nc(C(C)(C)NC(=O)c2ccc(-c3ccc(Cl)cc3)c(OCC3CC3)n2)no1 [Example 4, 5-(4-Chlorophenyl)-6-(cyclopropylmethoxy)-N-[2-(5-methyl-1,2,4-oxadiazol-3-yl)propan-2-yl]pyridine-2-carboxamide] | 232
5 | COC1CN(c2ccc(C(=O)N[C@@H](CC(C)C)C(N)=O)nc2OCC2CC2)C1 [Example 15, N-[(2S)-1-Amino-4-methyl-1-oxopentan-2-yl]-6-(cyclopropylmethoxy)-5-(3-methoxyazetidin-1-yl)pyridine-2-carboxamide] | 21.9
6 | NC(=O)[C@@H]1CC(F)(F)CN1C(=O)c1ccc(N2CC(F)(C3CC3)C2)c(OCC2CC2)n1 [Example 37, (2S)-1-[5-(3-Cyclopropyl-3-fluoroazetidin-1-yl)-6-(cyclopropylmethoxy)pyridine-2-carbonyl]-4,4-difluoropyrrolidine-2-carboxamide] | 19.3
7 | CC(C)(NC(=O)c1ccc(N2CC3(COC3)C2)c(OCC2CC2)n1)c1nccs1 [Example 11, 6-(Cyclopropylmethoxy)-5-(2-oxa-6-azaspiro[3.3]heptan-6-yl)-N-[2-(1,3-thiazol-2-yl)propan-2-yl]pyridine-2-carboxamide] | 135
8 | CC(C)C[C@H](NC(=O)c1ccc(N2CC(F)(C3CC3)C2)c(OCC2CC2)n1)C(N)=O [Example 36, N-[(2S)-1-Amino-4-methyl-1-oxopentan-2-yl]-5-(3-cyclopropyl-3-fluoroazetidin-1-yl)-6-(cyclopropylmethoxy)pyridine-2-carboxamide] | 20
9 | CC1(F)CN(c2ccc(C(=O)N3CC(F)(F)C[C@H]3C(N)=O)nc2OCC2CC2)C1 [Example 34, (2S)-1-[6-(Cyclopropylmethoxy)-5-(3-fluoro-3-methylazetidin-1-yl)pyridine-2-carbonyl]-4,4-difluoropyrrolidine-2-carboxamide] | 11.4
10 | CC(C)(NC(=O)c1ccc(-c2ccc(Cl)cc2)c(OCC2CC2)n1)c1ncco1 [Example 3, 5-(4-Chlorophenyl)-6-(cyclopropylmethoxy)-N-[2-(1,3-oxazol-2-yl)propan-2-yl]pyridine-2-carboxamide] | 144
11 | CSCC[C@H](NC(=O)c1ccc(OCC2CC2)c(Cl)n1)C(N)=O [Example 16, N-[(2S)-1-Amino-4-methylsulfanyl-1-oxobutan-2-yl]-6-chloro-5-(cyclopropylmethoxy)pyridine-2-carboxamide] | 973
12 | COC(=O)C(C)(C)NC(=O)c1ccc(-c2ccc(Cl)cc2)c(OCC2CC2)n1 [Example 2, Methyl 2-[[5-(4-chlorophenyl)-6-(cyclopropylmethoxy)pyridine-2-carbonyl]amino]-2-methylpropanoate] | 48.2
13 | CC(C)(NC(=O)c1ccc(-c2ccccc2)c(OCC2CC2)n1)c1ncco1 [Example 5, 6-(Cyclopropylmethoxy)-N-[2-(1,3-oxazol-2-yl)propan-2-yl]-5-phenylpyridine-2-carboxamide] | 34.2
14 | CCC(CC)(NC(=O)c1ccc(N2CC(F)(C3CC3)C2)c(OCC2CC2)n1)C(=O)NCCCF [Example 41, 5-(3-Cyclopropyl-3-fluoroazetidin-1-yl)-6-(cyclopropylmethoxy)-N-[3-(3-fluoropropylcarbamoyl)pentan-3-yl]pyridine-2-carboxamide] | 669

Same assay, conditions: CHO cells expressing human CB2 receptors; read-out: cAMP assay human CB2 EC50

Row | Structure (SMILES) | EC50 [nM]
15 | COC1CN(c2ccc(C(=O)NC3(CC(N)=O)COC3)nc2OCC2CC2)C1 [Example 22, N-[3-(2-Amino-2-oxoethyl)oxetan-3-yl]-6-(cyclopropylmethoxy)-5-(3-methoxyazetidin-1-yl)pyridine-2-carboxamide] | 67
16 | COC1CN(c2ccc(C(=O)NCC3(O)CCCCC3)nc2OCC2CC2)C1 [Example 24, 6-(Cyclopropylmethoxy)-N-[(1-hydroxycyclohexyl)methyl]-5-(3-methoxyazetidin-1-yl)pyridine-2-carboxamide] | 1290
17 | COC1CN(c2ccc(C(=O)NC(C)(C)Cc3nnc(-c4ccc(F)cc4)o3)nc2OCC2CC2)C1 [Example 21, 6-(Cyclopropylmethoxy)-N-[1-[5-(4-fluorophenyl)-1,3,4-oxadiazol-2-yl]-2-methylpropan-2-yl]-5-(3-methoxyazetidin-1-yl)pyridine-2-carboxamide] | 853
